The target in experiment [1] is human plasmatic BChE (hBChE; E.C. 3.1.1.8) (Homo sapiens, UniProt P06276). Put plainly: biochemical.
The target of experiment [2] is human recombinant AChE (hAChE; E.C. 3.1.1.7) (Homo sapiens, UniProt P22303). Put plainly: biochemical. To be noted: for IC50: human recombinant AChE, Ellman's method, phosphate buffer pH 7.4, mean of three independent determinations ± SD; for SI (selectivity index for hAChE): ratio of IC50 hBChE towards IC50 hAChE. (Ellman's reagent forms a yellow product with free thiols.)

Setting [3] is: human plasmatic BChE, Ellman's method, phosphate buffer pH 7.4, mean of three independent determinations ± SD, read-out: IC50 (µM) ± SD hBChE.

Counter-ions that a name gives are not always drawn. Like-named read-outs stand apart in the source and are kept apart here.

As a reminder, the IC50 is the point on the concentration scale where inhibition reaches its midpoint.

Sequence of human recombinant AChE (hAChE; E.C. 3.1.1.7) (P22303 32-614): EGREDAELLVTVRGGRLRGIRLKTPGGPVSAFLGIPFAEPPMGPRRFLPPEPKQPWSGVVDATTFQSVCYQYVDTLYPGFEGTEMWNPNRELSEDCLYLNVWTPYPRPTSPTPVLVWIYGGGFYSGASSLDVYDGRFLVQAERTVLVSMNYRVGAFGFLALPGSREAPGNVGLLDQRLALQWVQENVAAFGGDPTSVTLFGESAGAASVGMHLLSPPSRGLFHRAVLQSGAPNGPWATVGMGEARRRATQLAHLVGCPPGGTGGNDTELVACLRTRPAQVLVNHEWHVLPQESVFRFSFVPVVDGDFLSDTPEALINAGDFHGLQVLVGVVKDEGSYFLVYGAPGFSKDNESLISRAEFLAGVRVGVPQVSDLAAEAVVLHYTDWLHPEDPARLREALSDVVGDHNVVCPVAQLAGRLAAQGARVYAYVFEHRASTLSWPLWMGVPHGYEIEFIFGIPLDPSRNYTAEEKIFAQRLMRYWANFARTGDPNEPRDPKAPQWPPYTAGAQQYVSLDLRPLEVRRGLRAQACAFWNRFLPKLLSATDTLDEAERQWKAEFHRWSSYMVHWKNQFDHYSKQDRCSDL
Sequence of human plasmatic BChE (hBChE; E.C. 3.1.1.8) (P06276 29-602): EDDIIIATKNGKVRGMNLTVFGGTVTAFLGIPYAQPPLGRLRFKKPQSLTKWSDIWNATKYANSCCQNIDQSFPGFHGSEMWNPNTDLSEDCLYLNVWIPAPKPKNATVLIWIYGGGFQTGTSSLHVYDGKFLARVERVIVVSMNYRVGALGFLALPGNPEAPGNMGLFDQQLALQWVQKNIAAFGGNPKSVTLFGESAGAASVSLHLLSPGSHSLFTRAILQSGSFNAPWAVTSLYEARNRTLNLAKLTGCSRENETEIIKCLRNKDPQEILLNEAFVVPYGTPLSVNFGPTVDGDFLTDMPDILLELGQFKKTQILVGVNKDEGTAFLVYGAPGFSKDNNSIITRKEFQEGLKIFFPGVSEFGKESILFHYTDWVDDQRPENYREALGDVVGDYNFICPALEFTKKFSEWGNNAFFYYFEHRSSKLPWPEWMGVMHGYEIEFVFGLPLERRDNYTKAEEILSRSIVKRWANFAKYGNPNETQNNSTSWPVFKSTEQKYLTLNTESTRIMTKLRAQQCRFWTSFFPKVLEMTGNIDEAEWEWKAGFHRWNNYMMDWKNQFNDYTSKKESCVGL

`COc1ccc2nc3c(c(NCCCCCCCCN)c2c1)CCCC3` [Compound 9, N-(7-Methoxy-1,2,3,4-tetrahydroacridin-9-yl)octane-1,8-diamine]: the IC50 in experiment [1] (setting [3]) amounted to 10.1 ± 1.68 µM; in experiment [2] it was 0.47 ± 0.09 µM. Moreover, the “SI (selectivity index for hAChE)” value in experiment [2] is 21.4.

For `COc1ccc2nc3c(c(NCCCN)c2c1)CCCC3` [Compound 4, N-(7-Methoxy-1,2,3,4-tetrahydroacridin-9-yl)propane-1,3-diamine], in experiment [1] (setting [3]), the IC50 was 49.8 ± 8.31 µM. Further, in experiment [2], the concentration for half-maximal inhibition (IC50) worked out at 1.93 ± 0.38 µM and the “SI (selectivity index for hAChE)” value was 25.8.

`COc1ccc2nc3c(c(NCCN)c2c1)CCCC3` [Compound 3, N-(7-Methoxy-1,2,3,4-tetrahydroacridin-9-yl)ethane-1,2-diamine]: the IC50 in experiment [1] (setting [3]) worked out at 64.4 ± 10.8 µM. Further, in experiment [2], the IC50 turned out to be 5.32 ± 1.04 µM and the “SI (selectivity index for hAChE)” value is recorded as 12.1.

Take `COc1ccc2nc3c(c(NCCNC(=S)NC45CC6CC(CC(C6)C4)C5)c2c1)CCCC3` [Compound 11, 1-Adamantyl-3-(2-(7-methoxy-1,2,3,4-tetrahydroacridin-9-yl-amino)ethyl)thiourea 2,3-dihydroxysuccinate]: in experiment [1] (setting [3]), the IC50 was 6.02 ± 1.01 µM. Besides, in experiment [2], the IC50 came out at 5.02 ± 0.98 µM and the “SI (selectivity index for hAChE)” value was 1.2.

As for `COc1ccc2nc3c(c(NCCCCCCN)c2c1)CCCC3` [Compound 7, N-(7-Methoxy-1,2,3,4-tetrahydroacridin-9-yl)hexane-1,6-diamine], the IC50 in experiment [1] (setting [3]) was 10.8 ± 1.81 µM; in experiment [2], 0.21 ± 0.04 µM. In addition, the “SI (selectivity index for hAChE)” value in experiment [2] is on record as 51.6.

`COc1ccc2nc3c(c(NCCCNC(=S)NC45CC6CC(CC(C6)C4)C5)c2c1)CCCC3` [Compound 12]: the IC50 in experiment [1] (setting [3]) was 1.39 ± 0.23 µM. Besides, in experiment [2], the IC50 was 0.53 ± 0.1 µM and the “SI (selectivity index for hAChE)” value was 2.6.

Turning to `COc1ccc2nc3c(c(NCCCCCNC(=S)NC45CC6CC(CC(C6)C4)C5)c2c1)CCCC3` [Compound 14], in experiment [1] (setting [3]), the IC50 came to 0.11 ± 0.02 µM. In addition, in experiment [2], the IC50 came out at 0.47 ± 0.09 µM and the “SI (selectivity index for hAChE)” value is 0.2.

As for `COc1ccc2nc3c(c(NCCCCCCCCNC(=S)NC45CC6CC(CC(C6)C4)C5)c2c1)CCCC3` [Compound 17], the IC50 in experiment [1] (setting [3]) worked out at 0.26 ± 0.04 µM. Further, in experiment [2], the IC50 worked out at 1.62 ± 0.31 µM and the “SI (selectivity index for hAChE)” value was determined as 0.2.

On to `COc1ccc2nc3c(c(NCCCCN)c2c1)CCCC3` [Compound 5, N-(7-Methoxy-1,2,3,4-tetrahydroacridin-9-yl)butane-1,4-diamine], for which, in experiment [1] (setting [3]), the IC50 came to 9.22 ± 1.54 µM. Further, in experiment [2], the IC50 turned out to be 1.42 ± 0.28 µM and the “SI (selectivity index for hAChE)” value came out at 6.5.

Turning to `COc1ccc2nc3c(c(NCCCCCCNC(=S)NC45CC6CC(CC(C6)C4)C5)c2c1)CCCC3` [Compound 15], in experiment [1] (setting [3]), the 50% inhibitory concentration (IC50) is 0.33 ± 0.05 µM. In experiment [2], the IC50 is 2.09 ± 0.4 µM and the “SI (selectivity index for hAChE)” value is 0.2.

For `COc1ccc2nc3c(c(NCCCCNC(=S)NC45CC6CC(CC(C6)C4)C5)c2c1)CCCC3` [Compound 13], the IC50 in experiment [1] (setting [3]) is 0.98 ± 0.16 µM. For the same molecule, in experiment [2], the IC50 worked out at 2.04 ± 0.39 µM and the “SI (selectivity index for hAChE)” value is recorded as 0.5.

Turning to `COc1ccc2nc3c(c(NCCCCCCCN)c2c1)CCCC3` [Compound 8, N-(7-Methoxy-1,2,3,4-tetrahydroacridin-9-yl)heptane-1,7-diamine], in experiment [1] (setting [3]), the IC50 came out at 7.26 ± 1.21 µM. In experiment [2], the IC50 stood at 0.86 ± 0.17 µM and the “SI (selectivity index for hAChE)” value was 8.4.

On to `COc1ccc2nc3c(c(NCCCCCCCNC(=S)NC45CC6CC(CC(C6)C4)C5)c2c1)CCCC3` [Compound 16, 1-Adamantyl-3-(2-(7-methoxy-1,2,3,4-tetrahydroacridin-9-yl-amino)heptyl)thiourea 2,3-dihydroxy-succinate], for which the IC50 in experiment [1] (setting [3]) amounted to 0.15 ± 0.02 µM; in experiment [2] it was 3.47 ± 0.67 µM. The “SI (selectivity index for hAChE)” value in experiment [2] was found to be 0.04.

In the case of `S=C=NC12CC3CC(CC(C3)C1)C2` [Compound 10, 1-Adamantyl isothiocyanate, reference compound], the half-maximal inhibitory concentration (IC50) in experiment [1] amounted to 96.9 ± 16.2 µM. In experiment [2], the concentration for half-maximal inhibition (IC50) amounted to 25 ± 4.87 µM and the “SI (selectivity index for hAChE)” value is on record as 3.9.

Take `NC12CC3CC(CC(C3)C1)C2` [amantadine, 1-adamantylamine hydrochloride, reference compound]: the half-inhibitory concentration (IC50) in experiment [1] (setting [3]) was determined as 103 ± 17.1 µM.

In the case of `COc1ccc2nc3c(c(NCCCCCN)c2c1)CCCC3` [Compound 6, N-(7-Methoxy-1,2,3,4-tetrahydroacridin-9-yl)pentane-1,5-diamine], in experiment [1] (setting [3]), the half-maximal inhibitory concentration (IC50) is 29.6 ± 4.95 µM. Further, in experiment [2], the IC50 worked out at 3.44 ± 0.67 µM and the “SI (selectivity index for hAChE)” value worked out at 8.6.
